Columns and labels:
[1] = tested on: soybean (Glycine max L.) var. Stine 0480; assay: Fertilising of soya in plant growth climatic chamber: plant dry matter; type: in vivo
Description: (§1) The experiment was performed using the seeds of soybean (Glycine max L.) var. Stine 0480. A standard seed germination procedure was followed. Before starting the experiment, the seeds were thoroughly washed with water (30 minutes). The clean seeds were placed between two sheets of a cellulose paper soaked with water. The seeds germinated over two days in a climatic chamber at a temperature of 30° C. and a humidity of 60%, without access of light. After that time, the seedlings at a similar stage of development were placed on perforated trays floating over containers containing 10 L of the diluted nutrient solution for four days, followed by next three days using a solution containing micronutrients but without iron. Composition of the nutrient solution was: 1 mM Ca(NO3)2, 0.90 mM KNO3, 0.30 mM MgSO4, 0.10 mM KH2PO4, 2.5 μM MnSO4, 1.0 μM CuSO4, 10 μM ZnSO4, 1.0 μM NiCl2, 1.0 μM CoSO4, 115.5 μM Na2EDTA, 231 μM KOH, 35 μM NaCl, 10 μM H3BO3, 0.05 μM Na2MoO4 and 0.1 mM of N-(2-hydroxyethyl)piperazine-N′-(2-ethanesulfonic acid) sodium salt (HEPES). The pH value was adjusted to 7.5 using 1M KOH. 1-litre pots were filled with soil and sand in a volume ratio of 2:1. The test plants were transplanted into the thus-prepared pots, 3 plants per each pot. The experiment was carried out with adhering to the daily cycle of plant growth: 16 h of day time (30° C., 50% humidity) and 8 h of night time (25° C., 70% humidity).
(§2) Seven days after transplanting the plants into the pots, the symptoms of chlorosis were observed. The further part of the experiment was aimed at comparison of the effectiveness of performance of FeHBED with that of the commercially available FeEDDHA. For this purpose, the solutions of FeHBED and FeEDDHA were prepared, in which the iron isotope ^57Fe was used. The concentrations of ^57Fe in the doses were 0, 1.7, 3.4, 8.4, 16.8, 25.1 and 41.9 μmol of ^57Fe/kg of soil. Each dose was applied in duplicate. Additionally, a blank test (without iron) was performed for three pots.
Table 1 summarises the results of dry matter of above-ground sprouts (leaves and stems) for the plants gathered after every application of iron solutions of various concentration for two samplings.

[2] = tested on: soybean (Glycine max L.) var. Stine 0480; assay: Fertilising of soya in plant growth climatic chamber: SPAD index (leaves greenness); type: in vivo; conditions: for The SPAD index, 2nd level of foliage / The SPAD index, 3rd level of foliage: end of experiment
Description: as §1, §2
The SPAD index (a measure of leaves greenness) was determined every two days during the whole experiment.

Row | SMILES | Root dry weight ([1]; dose 1.7 μmol 57Fe/kg of soil) [g/3 plants] | Sprout dry weight, 1 sampling ([1]; dose 1.7 μmol 57Fe/kg of soil) [g/plant] | Sprout dry weight, 2 sampling ([1]; dose 1.7 μmol 57Fe/kg of soil) [g/plant] | Root dry weight ([1]; dose 3.4 μmol 57Fe/kg of soil) [g/3 plants] | Sprout dry weight, 1 sampling ([1]; dose 3.4 μmol 57Fe/kg of soil) [g/plant] | Sprout dry weight, 2 sampling ([1]; dose 3.4 μmol 57Fe/kg of soil) [g/plant] | Root dry weight ([1]; dose 8.4 μmol 57Fe/kg of soil) [g/3 plants] | Sprout dry weight, 1 sampling ([1]; dose 8.4 μmol 57Fe/kg of soil) [g/plant] | Sprout dry weight, 2 sampling ([1]; dose 8.4 μmol 57Fe/kg of soil) [g/plant] | Root dry weight ([1]; dose 16.8 μmol 57Fe/kg of soil) [g/3 plants] | Sprout dry weight, 1 sampling ([1]; dose 16.8 μmol 57Fe/kg of soil) [g/plant] | Sprout dry weight, 2 sampling ([1]; dose 16.8 μmol 57Fe/kg of soil) [g/plant] | Root dry weight ([1]; dose 25.1 μmol 57Fe/kg of soil) [g/3 plants] | Sprout dry weight, 1 sampling ([1]; dose 25.1 μmol 57Fe/kg of soil) [g/plant] | Sprout dry weight, 2 sampling ([1]; dose 25.1 μmol 57Fe/kg of soil) [g/plant] | Root dry weight ([1]; dose 41.9 μmol 57Fe/kg of soil) [g/3 plants] | Sprout dry weight, 1 sampling ([1]; dose 41.9 μmol 57Fe/kg of soil) [g/plant] | Sprout dry weight, 2 sampling ([1]; dose 41.9 μmol 57Fe/kg of soil) [g/plant] | The SPAD index, 2nd level of foliage ([2]; 1.7 μmol of 57Fe/kg of soil) | The SPAD index, 3rd level of foliage ([2]; 1.7 μmol of 57Fe/kg of soil) | other results
1 | O=C(O)CN(CCN(CC(=O)O)Cc1ccccc1O)Cc1ccccc1O [HBED] | 0.33 | 0.73 | 2.20 | 0.53 | 0.79 | 2.83 | 0.56 | 0.91 | 2.62 | 0.51 | 0.72 | 3.19 | 0.43 | 0.92 | 2.66 | 0.49 | 0.79 | 2.63 | 29.58 | 34.09 | Sprout dry weights compared with o,oEDDHA/57Fe3+ ([1]; conclusion from Table 1, all doses): no evident difference in the sprout dry weights; SPAD index compared with o,oEDDHA/57Fe3+ ([2]; both levels of foliage): No significant differences in the values of the SPAD index; The SPAD index, 2nd level of foliage ([2]; 3.4 μmol of 57Fe/kg of soil): 28.75; The SPAD index, 3rd level of foliage ([2]; 3.4 μmol of 57Fe/kg of soil): 35.91; The SPAD index, 2nd level of foliage ([2]; 8.4 μmol of 57Fe/kg of soil): 42.50; The SPAD index, 3rd level of foliage ([2]; 8.4 μmol of 57Fe/kg of soil): 43.18; The SPAD index, 2nd level of foliage ([2]; 16.8 μmol of 57Fe/kg of soil): 27.92; The SPAD index, 3rd level of foliage ([2]; 16.8 μmol of 57Fe/kg of soil): 37.73; The SPAD index, 2nd level of foliage ([2]; 25.1 μmol of 57Fe/kg of soil): 27.92; The SPAD index, 3rd level of foliage ([2]; 25.1 μmol of 57Fe/kg of soil): 37.73; The SPAD index, 2nd level of foliage ([2]; 41.9 μmol of 57Fe/kg of soil): 29.17; The SPAD index, 3rd level of foliage ([2]; 41.9 μmol of 57Fe/kg of soil): 43.64
2 | O=C([O-])C(NCCNC(C(=O)[O-])c1ccccc1[O-])c1ccccc1[O-].[Fe+3] (centres unmarked) [o,oEDDHA, reference compound] | 0.44 | 0.88 | 2.08 | 0.51 | 0.79 | 2.92 | 0.49 | 0.87 | 2.03 | 0.53 | 0.84 | 2.56 | 0.59 | 0.81 | 2.73 | 0.49 | 0.86 | 3.20 | 37.92 | 43.18 | The SPAD index, 2nd level of foliage ([2]; 3.4 μmol of 57Fe/kg of soil): 34.58; The SPAD index, 3rd level of foliage ([2]; 3.4 μmol of 57Fe/kg of soil): 40.00; The SPAD index, 2nd level of foliage ([2]; 8.4 μmol of 57Fe/kg of soil): 31.67; The SPAD index, 3rd level of foliage ([2]; 8.4 μmol of 57Fe/kg of soil): 36.82; The SPAD index, 2nd level of foliage ([2]; 16.8 μmol of 57Fe/kg of soil): 32.92; The SPAD index, 3rd level of foliage ([2]; 16.8 μmol of 57Fe/kg of soil): 40.46; The SPAD index, 2nd level of foliage ([2]; 25.1 μmol of 57Fe/kg of soil): 37.08; The SPAD index, 3rd level of foliage ([2]; 25.1 μmol of 57Fe/kg of soil): 37.73; The SPAD index, 2nd level of foliage ([2]; 41.9 μmol of 57Fe/kg of soil): 38.75; The SPAD index, 3rd level of foliage ([2]; 41.9 μmol of 57Fe/kg of soil): 44.55

— patent publication US8629293B2, “Process for the preparation of FE(III) chelates of N,N′-DI(2-hydroxybenzyl)-ethylenediamine-N,N′-diacetic acid and its derivatives” (Przedsiebiorstwo Produkcyjno-Consultingowe Adob SP. Z O.O. …, priority 2009, dated 2014)
